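Tested at 5 concentrations; 48 h exposure; 96-well plates; endpoints linearly interpolated, else capped at highest concentration. TGI denotes the concentration required for complete inhibition of growth.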
How the values were obtained:
Test in all cases: inhibition of tumour cell growth, NCI panel, 48 h
[1] = tested on: OVCAR-5 ovarian
[2] = tested on: NCI-H522 lung
[3] = tested on: MDA-MB-231 breast
[4] = tested on: HCT-116 colon
[5] = tested on: M14 melanoma
[6] = tested on: RXF 393 renal
[7] = tested on: MDA-N
[8] = tested on: A498 renal
[9] = tested on: IGROV1 ovarian
[10] = tested on: RPMI-8226 leukemia
[11] = tested on: SK-OV-3 ovarian
[12] = tested on: MCF7 breast
[13] = tested on: HS 578T breast
[14] = tested on: K-562 leukemia
[15] = tested on: SW-620 colon
[16] = tested on: SF-295 CNS
[17] = tested on: UO-31 renal
[18] = tested on: COLO 205 colon
[19] = tested on: MALME-3M melanoma
[20] = tested on: TK-10 renal
[21] = tested on: HOP-62 NSCLC
[22] = tested on: SNB-19 CNS
[23] = tested on: OVCAR-8 ovarian
[24] = tested on: UACC-257 melanoma
[25] = tested on: NCI-H226 lung
[26] = tested on: EKVX NSCLC
[27] = tested on: BT-549 breast
[28] = tested on: SN12C renal
[29] = tested on: SR leukemia
[30] = tested on: HOP-92 NSCLC
[31] = tested on: HL-60(TB) leukemia
[32] = tested on: SK-MEL-28 melanoma
[33] = tested on: HT29 colon
[34] = tested on: UACC-62 melanoma
[35] = tested on: CAKI-1 renal
[36] = tested on: LOX IMVI melanoma
[37] = tested on: ACHN renal
[38] = tested on: CCRF-CEM leukemia
[39] = tested on: T-47D breast
[40] = tested on: MDA-MB-435
[41] = tested on: MOLT-4 leukemia
[42] = tested on: SK-MEL-2 melanoma
[43] = tested on: PC-3 prostate
[44] = tested on: DU-145 prostate
[45] = tested on: A549 NSCLC
[46] = tested on: NCI/ADR-RES ovarian
[47] = tested on: KM12 colon
[48] = tested on: U251 CNS
[49] = tested on: SNB-75 CNS
[50] = tested on: SK-MEL-5 melanoma
[51] = tested on: NCI-H23 lung
[52] = tested on: 786-0 renal
[53] = tested on: SF-268 CNS
[54] = tested on: SF-539 CNS
[55] = tested on: NCI-H460 lung
[56] = tested on: HCT-15 colon
[57] = tested on: OVCAR-3 ovarian
[58] = tested on: OVCAR-4 ovarian
[59] = tested on: HCC-2998 colon

CC(C)(C)C1=NC(=P(c2ccccc2)(c2ccccc2)c2ccccc2)C(=O)O1
TGI [1]: > 100 µM
TGI [2]: 90.8 µM
TGI [3]: > 100 µM
TGI [4]: > 100 µM
TGI [5]: > 100 µM
TGI [6]: > 100 µM
TGI [7]: > 100 µM
TGI [8]: > 100 µM
TGI [9]: > 100 µM
TGI [10]: > 100 µM
TGI [11]: > 100 µM
TGI [12]: > 100 µM
TGI [13]: > 100 µM
TGI [14]: > 100 µM
TGI [15]: > 100 µM
TGI [16]: > 100 µM
TGI [17]: > 100 µM
TGI [18]: > 100 µM
TGI [19]: > 100 µM
TGI [20]: > 100 µM
TGI [21]: > 100 µM
TGI [22]: > 100 µM
TGI [23]: > 100 µM
TGI [24]: > 100 µM
TGI [25]: > 100 µM
TGI [26]: > 100 µM
TGI [27]: > 100 µM
TGI [28]: > 100 µM
TGI [29]: > 100 µM
TGI [30]: > 100 µM
TGI [31]: > 100 µM
TGI [32]: > 100 µM
TGI [33]: > 100 µM
TGI [34]: > 100 µM
TGI [35]: > 100 µM
TGI [36]: > 100 µM
TGI [37]: > 100 µM
TGI [38]: > 100 µM
TGI [39]: > 100 µM
TGI [40]: > 100 µM
TGI [41]: > 100 µM
TGI [42]: > 100 µM
TGI [43]: > 100 µM
TGI [44]: > 100 µM
TGI [45]: > 100 µM
TGI [46]: > 100 µM
TGI [47]: > 100 µM
TGI [48]: > 100 µM
TGI [49]: 56.5 µM
TGI [50]: > 100 µM
TGI [51]: > 100 µM
TGI [52]: > 100 µM
TGI [53]: > 100 µM

COC(=O)c1cc(C)n(CN(Cn2nc(C(=O)OC)cc2C)c2ccccc2)n1
TGI [1]: > 100 µM
TGI [2]: > 100 µM
TGI [3]: > 100 µM
TGI [4]: 40.9 µM
TGI [5]: > 100 µM
TGI [6]: 44.4 µM
TGI [7]: > 100 µM
TGI [8]: > 100 µM
TGI [9]: > 100 µM
TGI [10]: 44.6 µM
TGI [11]: > 100 µM
TGI [12]: 93.5 µM
TGI [13]: > 100 µM
TGI [14]: 60.4 µM
TGI [15]: > 100 µM
TGI [16]: > 100 µM
TGI [17]: 55.2 µM
TGI [18]: 32 µM
TGI [19]: > 100 µM
TGI [20]: > 100 µM
TGI [21]: > 100 µM
TGI [22]: > 100 µM
TGI [23]: 47.9 µM
TGI [24]: > 100 µM
TGI [26]: > 100 µM
TGI [54]: 36.3 µM
TGI [27]: > 100 µM
TGI [28]: > 100 µM
TGI [55]: > 100 µM
TGI [29]: 25.5 µM
TGI [30]: > 100 µM
TGI [31]: 47.5 µM
TGI [32]: > 100 µM
TGI [33]: 36 µM
TGI [56]: 47.2 µM
TGI [34]: 88 µM
TGI [35]: > 100 µM
TGI [36]: 42.3 µM
TGI [37]: 44.6 µM
TGI [38]: 54.2 µM
TGI [39]: 88.3 µM
TGI [40]: > 100 µM
TGI [57]: > 100 µM
TGI [58]: > 100 µM
TGI [41]: 33.4 µM
TGI [42]: > 100 µM
TGI [43]: > 100 µM
TGI [44]: > 100 µM
TGI [45]: > 100 µM
TGI [46]: 94.7 µM
TGI [47]: > 100 µM
TGI [48]: > 100 µM
TGI [50]: > 100 µM
TGI [51]: 69.6 µM
TGI [52]: 61 µM
TGI [53]: > 100 µM

CC(C)(C)OC(=O)NC(Cc1ccc(OCc2ccccc2)cn1)C(=O)N1CCCC1 (stereo not given)
TGI [1]: > 100 µM
TGI [2]: > 100 µM
TGI [3]: > 100 µM
TGI [59]: > 100 µM
TGI [4]: > 100 µM
TGI [5]: > 100 µM
TGI [6]: > 100 µM
TGI [7]: > 100 µM
TGI [8]: > 100 µM
TGI [9]: > 100 µM
TGI [10]: > 100 µM
TGI [12]: > 100 µM
TGI [13]: > 100 µM
TGI [14]: > 100 µM
TGI [15]: > 100 µM
TGI [16]: > 100 µM
TGI [17]: > 100 µM
TGI [18]: > 100 µM
TGI [19]: > 100 µM
TGI [20]: > 100 µM
TGI [21]: > 100 µM
TGI [22]: > 100 µM
TGI [23]: > 100 µM
TGI [24]: > 100 µM
TGI [26]: > 100 µM
TGI [54]: 67.4 µM
TGI [27]: 96.7 µM
TGI [28]: > 100 µM
TGI [55]: > 100 µM
TGI [29]: > 100 µM
TGI [30]: > 100 µM
TGI [31]: > 100 µM
TGI [32]: > 100 µM
TGI [33]: > 100 µM
TGI [56]: > 100 µM
TGI [34]: > 100 µM
TGI [35]: > 100 µM
TGI [36]: > 100 µM
TGI [37]: > 100 µM
TGI [38]: > 100 µM
TGI [39]: > 100 µM
TGI [40]: > 100 µM
TGI [57]: > 100 µM
TGI [41]: > 100 µM
TGI [42]: > 100 µM
TGI [43]: > 100 µM
TGI [44]: > 100 µM
TGI [45]: > 100 µM
TGI [46]: 91.8 µM
TGI [47]: > 100 µM
TGI [48]: > 100 µM
TGI [49]: > 100 µM
TGI [50]: 41.9 µM
TGI [51]: > 100 µM
TGI [52]: > 100 µM
TGI [53]: > 100 µM
